Results published in paper PMC7854658, “Structural basis for ligand recognition of the neuropeptide Y Y2 receptor” (Nature Communications, 2021).
Several values for one entry are separate records, joined by “and”; a condition that tells them apart may be missing. Equal entries are not always repeated.

Key:
[1] = biological target: T1, Y2R mutant Q288^6.55A (Homo sapiens, UniProt P49146, Q288A); experiment: NPY-induced IP accumulation (IP-One), mutant; assay type: cell-based
T1 construct: expressed in transfected cells; host or cells: HEK293
T1 sequence (P49146 1-381 Q288A): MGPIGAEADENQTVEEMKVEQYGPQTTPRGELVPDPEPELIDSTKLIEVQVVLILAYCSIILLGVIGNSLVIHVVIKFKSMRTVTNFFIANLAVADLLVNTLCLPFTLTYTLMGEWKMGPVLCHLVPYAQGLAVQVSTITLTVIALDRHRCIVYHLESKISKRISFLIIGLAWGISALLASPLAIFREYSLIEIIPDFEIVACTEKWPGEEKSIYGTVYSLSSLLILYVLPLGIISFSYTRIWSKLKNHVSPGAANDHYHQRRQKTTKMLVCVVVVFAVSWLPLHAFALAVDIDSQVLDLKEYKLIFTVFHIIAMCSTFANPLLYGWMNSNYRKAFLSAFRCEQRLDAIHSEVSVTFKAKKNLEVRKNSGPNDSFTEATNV

[2] = biological target: T2, Y2R mutant Y228^5.47A (Homo sapiens, UniProt P49146, Y228A); experiment: NPY-induced IP accumulation (IP-One), mutant; assay type: cell-based; conditions: 1 μM antagonist, source data Fig. 3
T2 construct: expressed in transfected cells; host or cells: HEK293
T2 sequence (P49146 whole entry Y228A): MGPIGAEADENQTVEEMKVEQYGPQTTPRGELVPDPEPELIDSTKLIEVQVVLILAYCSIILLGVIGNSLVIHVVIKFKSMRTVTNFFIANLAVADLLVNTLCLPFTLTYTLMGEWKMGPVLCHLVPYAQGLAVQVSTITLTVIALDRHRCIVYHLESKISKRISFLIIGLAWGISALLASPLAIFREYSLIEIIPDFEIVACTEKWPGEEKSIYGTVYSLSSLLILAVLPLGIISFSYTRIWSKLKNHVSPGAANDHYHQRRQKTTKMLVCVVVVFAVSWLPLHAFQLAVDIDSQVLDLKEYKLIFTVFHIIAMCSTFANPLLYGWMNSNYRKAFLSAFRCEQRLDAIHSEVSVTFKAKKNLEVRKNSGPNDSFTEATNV

[3] = tested on: opioid and adrenergic receptors; parameters: method as in Brothers, S. P. et al., Mol. Pharmacol. 77:46–57, 2010; conditions: ref Brothers, S. P. et al., Mol. Pharmacol. 77:46–57, 2010; cited from earlier work
[4] = 1 μM antagonist, source data Fig. 3

Structure (SMILES): N=C(N)NCCC[C@H](NC(=O)CC1(CC(=O)N2CCN(C3c4ccccc4NC(=O)c4ccccc43)CC2)CCCC1)C(=O)NCCn1c(=O)n(-c2ccccc2)n(-c2ccccc2)c1=O (stereo partly shown) [BIIE0246]
- Average EC50 ratio [1, 4]: 143.2
- EC50 ratio (individual experiments) [1, 4]: 101.5 and 185.0
- EC50 ratio ([1]; EC50(NPY + 1 μM antagonist)/EC50(NPY)): 102 and 185
- Ratio change (fold) ([1]; EC50 ratio (WT)/EC50 ratio (mutant)): 1.6 fold and 0.9 fold
- Average EC50 ratio [2]: 18.8
- EC50 ratio (individual experiments) [2]: 10.5 and 27.0
- Affinities at opioid and adrenergic receptors [3]: submicromolar
